Experimental data from patent US20230158025A1 (UNIVERSITY OF UTAH RESEARCH FOUNDATION, priority 2020, published 2023).
pIC50: −log10 of the molar value. Where two headings read alike, the source gives them in different places.

Legend:
recombinant human GALK1 = recombinant human GALK1 (Homo sapiens, UniProt P51570); experiment: hGALK1 biochemical activity assay (Kinase-Glo Plus, ATP depletion)
How it was run: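 Turnover is measured as ATP depletion by Kinase-Glo Plus luminescence after a 1 h room-temperature reaction. Compounds span 11 concentrations, 57.4 μM–0.97 nM, in final 20 mM HEPES pH 8.0 with 5 mM MgCl2. The substrate solution held 35 μM ATP; the added solution held 5 nM human or mouse GALK1 and 100 μM galactose.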

recombinant mouse GALK1 = recombinant mouse GALK1 (Mus musculus, UniProt Q9R0N0); experiment: mGALK1 biochemical activity assay (Kinase-Glo Plus, ATP depletion)
Sequence of recombinant mouse GALK1 (Q9R0N0 whole entry): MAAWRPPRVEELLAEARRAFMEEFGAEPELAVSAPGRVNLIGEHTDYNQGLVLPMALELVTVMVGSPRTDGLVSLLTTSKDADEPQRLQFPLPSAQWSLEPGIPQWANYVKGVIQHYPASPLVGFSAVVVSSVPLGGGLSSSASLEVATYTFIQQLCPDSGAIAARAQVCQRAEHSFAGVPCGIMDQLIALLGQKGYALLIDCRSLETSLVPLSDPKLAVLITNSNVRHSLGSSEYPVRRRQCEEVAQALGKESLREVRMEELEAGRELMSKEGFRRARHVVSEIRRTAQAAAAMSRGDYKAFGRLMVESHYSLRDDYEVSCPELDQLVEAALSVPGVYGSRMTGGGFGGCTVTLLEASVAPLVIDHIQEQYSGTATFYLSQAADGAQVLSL
How it was run: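 Recombinant GALK1 (5 nM) with 100 μM galactose; GALK1 turnover read as ATP depletion by Kinase-Glo Plus luminescence. Reaction ran 1 h at room temperature before detection reagent was added.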

[1] = aqueous kinetic solubility
[2] = rat microsomal stability (RLM)
[3] = Tables 2-15, 35 μM ATP, 100 μM galactose, 1 h, bracketed figure after some values (e.g. −1.2) is undefined and not reported, read-out: hGALK IC50
[4] = recombinant human GALK1, Kinase-Glo Plus ATP depletion, read-out: hGALK
[5] = Tables 2-15, 35 μM ATP, 100 μM galactose, 1 h, bracketed figure after some values is undefined and not reported, read-out: mGALK IC50
[6] = recombinant mouse GALK1, Kinase-Glo Plus ATP depletion, read-out: mGALK
[7] = recombinant human GALK1, Kinase-Glo Plus ATP depletion, bracketed figure in the cell, e.g. (−1.2), is not defined in the text shown, read-out: hGALK
[8] = recombinant mouse GALK1, Kinase-Glo Plus ATP depletion, bracketed figure in the cell, e.g. (−1.2), is not defined in the text shown, read-out: mGALK
[9] = microsomal stability half-life, minutes

Sequence of recombinant human GALK1 (P51570 whole entry): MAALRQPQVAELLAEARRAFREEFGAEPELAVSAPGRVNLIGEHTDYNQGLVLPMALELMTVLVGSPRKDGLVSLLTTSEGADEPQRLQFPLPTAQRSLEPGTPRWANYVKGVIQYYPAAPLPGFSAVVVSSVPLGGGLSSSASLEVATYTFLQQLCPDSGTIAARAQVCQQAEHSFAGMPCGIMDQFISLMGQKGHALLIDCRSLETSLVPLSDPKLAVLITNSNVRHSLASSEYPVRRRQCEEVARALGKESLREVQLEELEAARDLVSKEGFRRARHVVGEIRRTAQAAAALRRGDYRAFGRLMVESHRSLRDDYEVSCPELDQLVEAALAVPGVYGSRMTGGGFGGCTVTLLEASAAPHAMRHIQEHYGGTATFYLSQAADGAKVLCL

| Compound | pIC50 (recombinant human GALK1; [3]) | pIC50 (recombinant human GALK1; [4]) | pIC50 (recombinant mouse GALK1; [5]) | pIC50 (recombinant mouse GALK1; [6]) | Perm. (1 × 10^−6 cm/sec) (PAMPA permeability) | Sol. [1] | Metab. Stabil. (m) ([2]; microsomal half-life) | Perm. (1 × 10^−6 cm/sec) (PAMPA permeability; PAMPA) | Sol. ([1]; aqueous kinetic solubility) | Metab. Stabil. (m) ([2]; microsomal stability half-life) | pIC50 (recombinant human GALK1; [7]) | pIC50 (recombinant mouse GALK1; [8]) | Metab. Stabil. (m) [2, 9] | mGALK IC50 (recombinant mouse GALK1; Tables 2-15, 35 μM ATP, 100 μM galactose, 1 h, bracketed figure after some values is undefined and not reported) | mGALK (μM) (recombinant mouse GALK1; recombinant mouse GALK1, Kinase-Glo Plus ATP depletion) |
| --- | --- | --- | --- | --- | --- | --- | --- | --- | --- | --- | --- | --- | --- | --- | --- |
| CC1=C(C(=O)Nc2cc(C(=O)O)ccn2)[C@H](c2ccc(C)cc2Cl)N=C(Nc2nc3cccc(N)c3o2)N1 [Compound 85, (R)-2-(2-((7-aminobenzo[d]oxazol-2-yl)amino)-4-(2-chloro-4-methylphenyl)-6-methyl-1,4-dihydropyrimidine-5-carboxamido)isonicotinic acid] | 7.05 | 7.05 | 5.85 | 5.85 | <1 1 × 10^−6 cm/sec | >53 µg/mL | >30 m | – | – | – | – | – | – | – | – |
| COC(=O)Cc1cccc(NC(=O)C2=C(C)NC(Nc3nc4ccccc4o3)=NC2c2ccccc2Cl)c1 (centres unmarked) [Compound 176, methyl 2-(3-(2-(benzo[d]oxazol-2-ylamino)-4-(2-chlorophenyl)-6-methyl-1,4-dihydropyrimidine-5-carboxamido)phenyl)acetate] | 4.96 | 4.96 | 4.86 | 4.86 | – | – | – | <17.4 1 × 10^−6 cm/sec | <1 µg/mL | 10.34 m | – | – | – | – | – |
| CC1=C(C(=O)Nc2nncs2)C(c2ccccc2Br)N=C(Nc2nc3ccccc3o2)N1 (centres unmarked) [Compound 251, 2-(benzo[d]oxazol-2-ylamino)-4-(2-bromophenyl)-6-methyl-N-(1,3,4-thiadiazol-2-yl)-1,4-dihydropyrimidine-5-carboxamide] | – | – | – | – | – | – | – | 446.9 1 × 10^−6 cm/sec | <1 µg/mL | – | 5.36 | 5.01 | >30 m | – | – |
| CC1=C(C(=O)Nc2ccccc2Cl)C(c2ccccc2Cl)N=C(Nc2nc3ccccc3o2)N1 (centres unmarked) [Compound 140, 2-(benzo[d]oxazol-2-ylamino)-N,4-bis(2-chlorophenyl)-6-methyl-1,4-dihydropyrimidine-5-carboxamide] | 5.36 | – | – | – | – | – | – | 56.0 1 × 10^−6 cm/sec | <1 µg/mL | 28.74 m | – | – | – | inactive | in- active |
| CC1=C(C(=O)Nc2cc(C(=O)O)ccn2)C(c2ccc(-n3cccn3)cc2Cl)N=C(Nc2nc3ccc(F)cc3o2)N1 (centres unmarked) [Compound 60, 2-(4-(2-chloro-4-(1H-pyrazol-1-yl)phenyl)-2-((6-fluorobenzo[d]oxazol-2-yl)amino)-6-methyl-1,4-dihydropyrimidine-5-carboxamido)isonicotinic acid] | – | 6.11 | – | 5.46 | <1 1 × 10^−6 cm/sec | >87 µg/mL | >30 m | – | – | – | – | – | – | – | – |
| CC1=C(C(=O)Nc2cc(C(=O)O)ccn2)C(c2ccccc2Cl)N=C(Nc2nc3c(N)cccc3o2)N1 (centres unmarked) [Compound 2, 2-(2-((4-aminobenzo[d]oxazol-2-yl)amino)-4-(2-chlorophenyl)-6-methyl-1,4-dihydropyrimidine-5-carboxamido)isonicotinic acid] | – | 4.66 | 4.51 | 4.51 | <1 1 × 10^−6 cm/sec | >76 µg/mL | >30 m | – | – | – | – | – | – | – | – |
| CC1=C(C(=O)Nc2nnc(-c3cccnc3)s2)C(c2ccccc2Cl)N=C(Nc2nc3cc(C)ccc3o2)N1 (centres unmarked) [Compound 96, 4-(2-chlorophenyl)-2-((5-methylbenzo[d]oxazol-2-yl)amino)-6-methyl-N-(5-(pyridin-3-yl)-1,3,4-thiadiazol-2-yl)-1,4-dihydropyrimidine-5-carboxamide] | – | 5.31 | – | 4.96 | <1.5 1 × 10^−6 cm/sec | <1 µg/mL | >30 m | – | – | – | – | – | – | – | – |
| CC1=C(C(=O)Nc2nnc(-c3cccnc3)s2)C(c2ccccc2Cl)N=C(Nc2nc3ccccc3o2)N1 (centres unmarked) [Compound 180, 2-(benzo[d]oxazol-2-ylamino)-4-(2-chlorophenyl)-6-methyl-N-(5-(pyridin-3-yl)-1,3,4-thiadiazol-2-yl)-1,4-dihydropyrimidine-5-carboxamide] | 5.51 | 5.51 | 5.01 | 5.01 | – | – | – | <3.7 1 × 10^−6 cm/sec | <1 µg/mL | >30 m | – | – | – | – | – |
| COC(=O)c1ccc(NC(=O)C2=C(C)NC(Nc3nc4ccccc4o3)=NC2c2ccccc2Cl)cn1 (centres unmarked) [Compound 166, methyl 5-(2-(benzo[d]oxazol-2-ylamino)-4-(2-chlorophenyl)-6-methyl-1,4-dihydropyrimidine-5-carboxamido)picolinate] | – | 5.21 | – | 5.16 | – | – | – | 96.1 1 × 10^−6 cm/sec | <1 µg/mL | 4.678 m | – | – | – | – | – |
| CC1=C(C(=O)Nc2ccc(F)cc2)C(c2ccccc2Cl)N=C(Nc2nc3ccccc3o2)N1 (centres unmarked) [Compound 148, 2-(benzo[d]oxazol-2-ylamino)-N-(4-fluorophenyl)-4-(2-chlorophenyl)-6-methyl-1,4-dihydropyrimidine-5-carboxamide] | 5.11 | – | 4.91 | 4.91 | – | – | – | 29.4 1 × 10^−6 cm/sec | <1 µg/mL | >30 m | – | – | – | – | – |
| CC1=C(C(=O)Nc2ccc(CN3CCOCC3)cc2)C(c2ccccc2Cl)N=C(Nc2nc3ccccc3o2)N1 (centres unmarked) [Compound 183, 2-(benzo[d]oxazol-2-ylamino)-4-(2-chlorophenyl)-6-methyl-N-(4-(morpholinomethyl)phenyl)-1,4-dihydropyrimidine-5-carboxamide] | 5.26 | 5.26 | 5.01 | 5.01 | – | – | – | 120.4 1 × 10^−6 cm/sec | <1 µg/mL | 22.3 m | – | – | – | – | – |
| CC1=C(C(=O)NCc2cnn(C)c2C)C(c2ccc(C)cc2Cl)N=C(Nc2nc3ccc(F)cc3o2)N1 (centres unmarked) [Compound 124] | 6.31 | 6.31 | 5.46 | 5.46 | – | – | – | 460.2 1 × 10^−6 cm/sec | <1 µg/mL | 2.993 m | – | – | – | – | – |
| O/N=C1\CCCC2=C1C(c1ccccc1Cl)N=C(Nc1nc3ccccc3o1)N2 (centres unmarked) [Compound 244, (E)-2-(benzo[d]oxazol-2-ylamino)-4-(2-chlorophenyl)-4,6,7,8-tetrahydroquinazolin-5(1H)-one oxime] | – | – | – | – | – | – | – | 244.29 1 × 10^−6 cm/sec | <1 µg/mL | – | 4.76 | 4.96 | 5.48 m | – | – |

Now from value to compound:

| pIC50 (recombinant human GALK1; [3]) | pIC50 (recombinant human GALK1; [4]) | pIC50 (recombinant mouse GALK1; [5]) | pIC50 (recombinant mouse GALK1; [6]) | Perm. (1 × 10^−6 cm/sec) (PAMPA permeability) | Sol. [1] | Metab. Stabil. (m) ([2]; microsomal half-life) | Perm. (1 × 10^−6 cm/sec) (PAMPA permeability; PAMPA) | Sol. ([1]; aqueous kinetic solubility) | Metab. Stabil. (m) ([2]; microsomal stability half-life) | pIC50 (recombinant human GALK1; [7]) | pIC50 (recombinant mouse GALK1; [8]) | Metab. Stabil. (m) [2, 9] | mGALK IC50 (recombinant mouse GALK1; Tables 2-15, 35 μM ATP, 100 μM galactose, 1 h, bracketed figure after some values is undefined and not reported) | mGALK (μM) (recombinant mouse GALK1; recombinant mouse GALK1, Kinase-Glo Plus ATP depletion) | Compound |
| --- | --- | --- | --- | --- | --- | --- | --- | --- | --- | --- | --- | --- | --- | --- | --- |
| 6.82 | 6.82 | 5.61 | 5.61 | <1 1 × 10^−6 cm/sec | >81 µg/mL | >30 m | – | – | – | – | – | – | – | – | COc1ccc([C@@H]2N=C(Nc3nc4cccc(N)c4o3)NC(C)=C2C(=O)Nc2cc(C(=O)O)ccn2)c(Cl)c1 [Compound 87, (R)-2-(2-((7-aminobenzo[d]oxazol-2-yl)amino)-4-(2-chloro-4-methoxyphenyl)-6-methyl-1,4-dihydropyrimidine-5-carboxamido)isonicotinic acid] |
| – | 5.76 | – | 4.91 | 942.87 1 × 10^−6 cm/sec | 13.7 µg/mL | 26 m | – | – | – | – | – | – | – | – | CC1=C(C(=O)NCc2cnn(C)c2)C(c2ccccc2Cl)N=C(Nc2nc3ccc(F)cc3o2)N1 (centres unmarked) [Compound 44, 4-(2-chlorophenyl)-2-((6-fluorobenzo[d]oxazol-2-yl)amino)-6-methyl-N-((1-methyl-1H-pyrazol-4-yl)methyl)-1,4-dihydropyrimidine-5-carboxamide] |
| – | – | – | – | – | – | – | 37.0 1 × 10^−6 cm/sec | 34.6 µg/mL | – | 4.76 | 4.26 | >30 m | – | – | CC1=C(C(=O)Nc2nncs2)C(c2n[nH]cc2Cl)N=C(Nc2nc3ccccc3o2)N1 (centres unmarked) [Compound 254, 2-(benzo[d]oxazol-2-ylamino)-4-(4-chloro-1H-pyrazol-3-yl)-6-methyl-N-(1,3,4-thiadiazol-2-yl)-1,4-dihydropyrimidine-5-carboxamide] |
| – | 4.66 | 4.66 | 4.66 | <1 1 × 10^−6 cm/sec | >79 µg/mL | >30 m | – | – | – | – | – | – | – | – | COc1ccc2nc(NC3=NC(c4ccccc4Cl)C(C(=O)Nc4cc(C(=O)O)ccn4)=C(C)N3)oc2c1 (centres unmarked) [Compound 7, 2-(4-(2-chlorophenyl)-6-methyl-2-((6-methoxybenzo[d]oxazol-2-yl)amino)-1,4-dihydropyrimidine-5-carboxamido)isonicotinic acid] |
| – | 5.41 | 4.76 | 4.76 | – | – | – | 1038.5 1 × 10^−6 cm/sec | <1 µg/mL | 7.708 m | – | – | – | – | – | CC1=C(C(=O)Nc2ccccc2CO)C(c2ccccc2Cl)N=C(Nc2nc3ccccc3o2)N1 (centres unmarked) [Compound 156, 2-(benzo[d]oxazol-2-ylamino)-4-(2-chlorophenyl)-N-(2-(hydroxymethyl)phenyl)-6-methyl-1,4-dihydropyrimidine-5-carboxamide] |
